Data on 5 compounds can be found in article PMC11596610 (Molecules, 2024).

In one series the test system is S. mansoni adult worms. Description: Drug assay against ex vivo S. mansoni adult worms. The class given is cell-based, Schistosoma mansoni. Conditions: for IC50: Schistosoma mansoni. The protocol: Female NMRI mice (age 3 weeks, weight ca. 14–20 g) were purchased from Charles River (Sulzfeld, Germany). […] To obtain adult schistosomes, NMRI mice were infected subcutaneously with 80 to 100 cercariae. After 49 days, the mice were euthanized with CO2 and the worms collected from the hepatic portal and mesenteric veins. […] Each compound was tested in duplicate. Artesunate and praziquantel were previously tested in the drug assay against S. mansoni adult worms. Schistosomes incubation with no more than 1% DMSO served as control. Worms were kept in an incubator at 37 °C and 5% CO2 for up to 72 h. After 24, 48 and 72 h, the condition of the worms was microscopically evaluated and scored as described above.

The test system of series [1] is P. falciparum strain NF54. Description: [3H]-hypoxanthine incorporation assay, antiplasmodial activity. It counts as cell-based. Conditions: Plasmodium falciparum. The protocol: Compounds were dissolved in DMSO at 10 mM, serial dilutions prepared in hypoxanthine-free culture medium (7-step dilution series; 2-fold serial dilutions) and 100 μL aliquots were dispensed in duplicates into 96-well cell culture plates. […] After incubation for 48 h, 0.25 μCi of [^3H]-hypoxanthine was added per well and plates were incubated for an additional 24 h. Parasites were harvested onto glass-fiber filters using a Microbeta FilterMate cell harvester (Perkin Elmer, Waltham, MA, USA) and radioactivity was counted using a MicroBeta2 liquid scintillation counter (Perkin Elmer, Waltham, MA, USA).

Series [2] in a line: Cytotoxicity assay with the rat L6 cell line (resazurin). It counts as cell-based. The protocol:
Cultures were maintained at 37 °C in an atmosphere of 5% CO2. […] Plates were incubated at 37 °C under a 5% CO2 atmosphere for 24 h. After that, compounds were dissolved in DMSO (10 mM or 10 mg/mL), serial drug dilutions of eleven 3-fold dilution steps covering a range from 100 to 0.002 μg/mL or 100 to 0.002 µM were prepared, and the plates incubated at 37 °C under 5% CO2 for 70 h. […] The results were expressed as percentage of the untreated controls. Fifty percent inhibitory concentrations (IC50) were estimated by linear interpolation.
Background: The colour change of resazurin is a common sign of viable cells or microbes.

The next series has as its system S. mansoni. Description: Drug assay in vivo in S. mansoni-infected mice. Also noted: species or system mice (NMRI). The note with it: single oral dose 200 mg/kg. The procedure: The in vivo study was carried out in accordance with Swiss national and cantonal regulations on animal welfare under the permission number 545. Female mice (NMRI strain; 3-week-old; weight ca. 20–22 g) were purchased from Charles River, Germany. Rodents were kept under environmentally controlled conditions (temperature ~25 °C; humidity ~70%; 12 h light, 12 h dark cycle) with free access to water and rodent diet, and acclimatized for one week before infection. […]. Untreated mice (n = 4) served as controls in all experiments. Two weeks post-treatment mice were dissected and all worms counted. Worm burden reductions were calculated.

Series [3] has as its system S. mansoni newly transformed schistosomula (NTS). The series is described as follows: Drug assay against S. mansoni NTS. The class given is cell-based, Schistosoma mansoni. The note with it: for IC50: Schistosoma mansoni. The text has this:
Harvested S. mansoni cercariae (Liberian strain) obtained from infected Biomphalaria glabrata snails were mechanically transformed into newly transformed schistosomula (NTS) following standard procedures as described. Artesunate and praziquantel were previously tested in the drug assay against S. mansoni NTS [39]. […] Culture medium was composed of M199 medium (Gibco, Waltham MA, USA) supplemented with 5% Horse Serum (Gibco, Waltham MA, USA), 1% penicillin/streptomycin mixture (Invitrogen, Carlsbad, CA, USA, 100 U/mL) and 1% Mäser Mix. Each compound was tested in triplicate. NTS incubated with no more than 1% DMSO served as control. NTS were kept in the incubator at 37 °C and 5% CO2 for up to 72 h. After 24, 48 and 72 h, the condition of the NTS was microscopically evaluated.

Setting [4] is: P. falciparum NF54, 3H-hypoxanthine incorporation, mean of 2 independent determinations, read-out: NF54 IC50.

Like-named read-outs stand apart in the source and are kept apart here.

In general, IC50 refers to the point on the concentration scale where inhibition reaches its midpoint. Broadly, the CC50 is the concentration at which the toxic effect on the cells reaches its halfway point.

On to `CC1=C(Cc2ccc(C(F)(F)F)cc2)C(=O)C2(C)CC=CC=C2C1=O` (racemic) [Product 1, (±)-2,4a-dimethyl-3-(4-(trifluoromethyl)benzyl)-4a,5-dihydronaphthalene-1,4-dione], for which the IC50 with S. mansoni adult worms (24 h) is 800 nM; with S. mansoni adult worms (48 h), 200 nM; in the series on S. mansoni adult worms (72 h), 600 nM; in series [1] (setting [4]), 1850 ± 458 nM; in series [3] (24 h), 2700 nM; in series [3] (48 h) it was 2400 nM. Besides, the IC50 in series [3] (72 h) turned out to be 2000 nM. The “Effect in % ± SD” value was found to be 53.3 ± 0% in the series on S. mansoni adult worms (test conc. 1 µM, 24 h); 58.3 ± 0% with S. mansoni adult worms (test conc. 1 µM, 48 h); 59.15 ± 0.8% with S. mansoni adult worms (test conc. 1 µM, 72 h); 53.7 ± 0.9% in the series with S. mansoni adult worms (test conc. 10 µM, 24 h); 65.65 ± 3.1% in the series on S. mansoni adult worms (test conc. 10 µM, 48 h); 66.7 ± 2.1% in the series with S. mansoni adult worms (test conc. 10 µM, 72 h). In addition, the “Effect in % ± SD” value in the series with S. mansoni adult worms (test conc. 25 µM, 24 h) is 70.4 ± 3.7%; with S. mansoni adult worms (test conc. 25 µM, 48 h) it was 73.15 ± 2.8%; in the series on S. mansoni adult worms (test conc. 25 µM, 72 h), 88.9 ± 0%; in series [3] (test conc. 1 µM, 24 h), 18.87 ± 1.9%; in series [3] (test conc. 1 µM, 48 h), 26.42 ± 1.9%; in series [3] (test conc. 1 µM, 72 h) it was 28.57 ± 2%. In addition, the “Effect in % ± SD” value in series [3] (test conc. 10 µM, 24 h) was 34.59 ± 1.3%; in series [3] (test conc. 10 µM, 48 h), 35.35 ± 0.7%; in series [3] (test conc. 10 µM, 72 h), 71.70 ± 9.4%; in series [3] (test conc. 25 µM, 24 h) it was 100 ± 0%; in series [3] (test conc. 25 µM, 48 h), 100 ± 0%; in series [3] (test conc. 25 µM, 72 h), 100 ± 0%. The midpoint of cytotoxicity in series [2] (rat), the CC50 at 70 h, lay at 22500 nM. Further, in the series on S. mansoni, the “Total WBR (worm burden reduction)” value is 15.7%. In addition, the Cures with S. mansoni (cured/treated) is reported as 0/4. Further, in the series on S. mansoni (two weeks post-treatment), the “Mean Number of Worms (SD) Females” value is 10.8 (1.0). Also, the “Mean Number of Worms (SD) Liver” value in the series with S. mansoni (two weeks post-treatment) is recorded as 0. In addition, in the series with S. mansoni (two weeks post-treatment), the “Mean Number of Worms (SD) Mesenteric Veins” value is given as 21.5 (1.9). In the series with S. mansoni (two weeks post-treatment), the “Mean Number of Worms (SD) Total” value was 21.5 (1.9).
`CC1=C(Cc2ccc(C(F)(F)F)cc2)C(=O)C2=CC=CCC2(C)C1=O` (racemic) [Product 2, (±)-3,4a-dimethyl-2-(4-(trifluoromethyl)benzyl)-4a,5-dihydronaphthalene-1,4-dione]: the IC50 in the series on S. mansoni adult worms (24 h) was 22700 nM; with S. mansoni adult worms (48 h), 17300 nM; in the series with S. mansoni adult worms (72 h), 15200 nM; in series [1] (setting [4]), 2390 ± 825 nM; in series [3] (24 h) it was 17400 nM; in series [3] (48 h), 8500 nM. For the same compound, the half-maximal inhibitory concentration (IC50) in series [3] (72 h) was found to be 1700 nM. In addition, the “Effect in % ± SD” value in the series on S. mansoni adult worms (test conc. 10 µM, 24 h) is on record as 42.75 ± 1%; in the series with S. mansoni adult worms (test conc. 10 µM, 48 h), 48.05 ± 2.9%; with S. mansoni adult worms (test conc. 10 µM, 72 h), 50 ± 0%; in the series on S. mansoni adult worms (test conc. 25 µM, 24 h), 44.4 ± 0%; with S. mansoni adult worms (test conc. 25 µM, 48 h), 49.05 ± 0.9%; with S. mansoni adult worms (test conc. 25 µM, 72 h), 51.9 ± 0%. Further, the “Effect in % ± SD” value is 20.75 ± 0% in series [3] (test conc. 1 µM, 24 h); 32.08 ± 0% in series [3] (test conc. 1 µM, 48 h); 36.73 ± 2% in series [3] (test conc. 1 µM, 72 h); 34.52 ± 6.2% in series [3] (test conc. 10 µM, 24 h); 51.43 ± 8.6% in series [3] (test conc. 10 µM, 48 h); 86.79 ± 1.9% in series [3] (test conc. 10 µM, 72 h). In addition, in series [2] (rat), the CC50 at 70 h was 25600 nM.
With `CCN(CC)CCCC(C)Nc1ccnc2cc(Cl)ccc12` (stereo not shown) [CQ diphosphate, Chloroquine diphosphate, reference compound], the IC50 in series [1] (NF54, read-out: NF54 IC50) was 4 ng/mL.
As for `COc1cc([C@@H]2c3cc4c(cc3[C@H](O)[C@H]3COC(=O)[C@H]23)OCO4)cc(OC)c1OC` [Podophyllotoxin, podophyllotoxin, reference compound], in series [2] (rat L6 cells, 70 h incubation, resazurin, read-out: L6 CC50), the CC50 at 70 h was determined as 10 nM.
On to `C[C@H]1[C@H](OC(=O)CCC(=O)O)O[C@@H]2O[C@@]3(C)CC[C@H]4[C@H](C)CC[C@@H]1[C@@]24OO3` [artesunate, reference compound], for which the IC50 in series [1] (P. falciparum NF54, reference compounds, values printed in ng/mL, read-out: NF54 IC50) was 1.52 ng/mL.
